Data taken from PubChem BioAssay (NCI).
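Test compounds were applied to cells in 96-well plates for 48 hours at 5 doses. GI50 = concentration required for 50% inhibition of growth. TGI: concentration producing complete growth inhibition.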

Tests used:
Experiment in all cases: growth of human tumour cells (NCI), 48 h
NCI-H23 lung = test system: NCI-H23 lung
HCT-116 colon = test system: HCT-116 colon
A549 NSCLC = test system: A549 NSCLC
SNB-75 CNS = test system: SNB-75 CNS
IGROV1 ovarian = test system: IGROV1 ovarian
SK-MEL-5 melanoma = test system: SK-MEL-5 melanoma
UACC-62 melanoma = test system: UACC-62 melanoma
M14 melanoma = test system: M14 melanoma

| SMILES | GI50 (NCI-H23 lung) | TGI (NCI-H23 lung) | GI50 (HCT-116 colon) | TGI (HCT-116 colon) | GI50 (A549 NSCLC) | TGI (A549 NSCLC) | GI50 (SNB-75 CNS) | TGI (SNB-75 CNS) | GI50 (IGROV1 ovarian) | TGI (IGROV1 ovarian) | GI50 (SK-MEL-5 melanoma) | TGI (SK-MEL-5 melanoma) | GI50 (UACC-62 melanoma) | TGI (UACC-62 melanoma) | GI50 (M14 melanoma) | TGI (M14 melanoma) |
| --- | --- | --- | --- | --- | --- | --- | --- | --- | --- | --- | --- | --- | --- | --- | --- | --- |
| CCCCCCCCn1ccc2cc(NC(=O)Cn3cc(CN4CCCC4)nn3)ccc21 | 1.92 µM | 3.8 µM | 1.7 µM | 3.32 µM | 1.83 µM | 3.63 µM | 1.52 µM | 2.93 µM | 1.74 µM | 3.59 µM | 1.79 µM | 3.18 µM | 1.7 µM | 3.16 µM | 1.79 µM | 3.35 µM |
| O=c1cc(-c2ccccc2)oc2cc(OC/C(=N/O)c3ccccc3)ccc12 | 22.6 µM | > 50 µM | – | – | 31.7 µM | > 50 µM | 9.01 µM | 32.6 µM | – | – | 20.7 µM | > 50 µM | 12.7 µM | > 50 µM | > 50 µM | > 50 µM |
| Cc1cc(Cl)cc2c1NC(=O)C2(O)CC(=O)c1ccco1 (stereo not given) | – | > 100 µM | – | > 100 µM | – | > 100 µM | – | > 100 µM | – | > 100 µM | – | 51.5 µM | – | 67.5 µM | – | > 100 µM |
| COc1cc(Nc2nc3ccccc3nc2-c2cccs2)cc(OC)c1OC | – | > 100 µM | – | > 100 µM | – | > 100 µM | – | > 100 µM | – | – | – | – | – | > 100 µM | – | – |
| CCOC(=O)/C(C#N)=C/c1[nH]c(C(=O)OCc2ccccc2)c(C)c1C | – | > 100 µM | – | – | – | > 100 µM | – | > 100 µM | – | > 100 µM | – | > 100 µM | – | > 100 µM | – | > 100 µM |
| O=C(Nc1ccc(-c2nc(N3CCOCC3)c3cccn3n2)cc1)Nc1cccnc1 | 0.269 µM | > 100 µM | 0.041 µM | 27.7 µM | 0.244 µM | > 100 µM | 0.0432 µM | 0.64 µM | 0.0767 µM | 0.464 µM | 0.196 µM | 0.847 µM | – | – | – | – |
| O=C1c2ccccc2C(=O)N1CCc1ncc[nH]1 | – | > 100 µM | – | > 100 µM | – | > 100 µM | – | – | – | > 100 µM | – | > 100 µM | – | > 100 µM | – | > 100 µM |
| CCCCCCCC[C@@H](O)CC(=O)N[C@@H](CC(N)=O)C(=O)N[C@@H](CCC(N)=O)C(=O)N[C@@H](CC(=O)c1cc(C)cc(O)c1C(=O)c1c(O)cccc1O)CC(C)C | 1.36 µM | 14.8 µM | 0.303 µM | 1.78 µM | 5.31 µM | > 100 µM | 0.199 µM | 0.585 µM | 0.261 µM | > 100 µM | – | – | 0.317 µM | 1.89 µM | 0.735 µM | 18.4 µM |
| O=C(CCc1cc(-c2ccccc2)nc(=S)[nH]1)N(Cc1ccccc1)Cc1ccccc1 | – | > 100 µM | – | > 100 µM | – | > 100 µM | – | – | – | > 100 µM | – | – | – | > 100 µM | – | > 100 µM |
| CCOC(=S)SSSC(=S)OCC | – | > 100 µM | – | 53.7 µM | – | > 100 µM | – | > 100 µM | – | – | – | > 100 µM | – | > 100 µM | – | > 100 µM |
| CS(=O)(=O)c1ccc(-n2nc(C(F)(F)F)cc2OC2CCCC2)cc1 | – | – | 34.5 µM | > 100 µM | 25.7 µM | 79.4 µM | > 100 µM | > 100 µM | > 100 µM | > 100 µM | 19.5 µM | 36.2 µM | 33.3 µM | > 100 µM | 32.2 µM | 93.5 µM |
| NC(=O)NS(=O)(=O)c1ccc(N2N=C(C(F)(F)F)CC2c2cc(C(F)(F)F)cc(C(F)(F)F)c2)cc1 (stereo not given) | 5.32 µM | 19.2 µM | 3.07 µM | 14.7 µM | 3.36 µM | 13.5 µM | 2.86 µM | 15.3 µM | – | – | 3.07 µM | 12 µM | 10.4 µM | 22.7 µM | 4.96 µM | 21.1 µM |
| N#CC(C#N)=C1Nc2ccccc2S1 | 22.4 µM | 45.9 µM | 37.7 µM | > 100 µM | 23.5 µM | > 100 µM | – | – | 35.9 µM | > 100 µM | 22.7 µM | 44.8 µM | 37.2 µM | > 100 µM | 22.6 µM | > 100 µM |
| Cn1c2ccccc2c2ccc3c(c21)C(=O)c1ccccc1C3=O | – | 33.5 µM | – | 40.6 µM | – | > 100 µM | – | – | – | 31.4 µM | – | 30.2 µM | – | 38.3 µM | – | 83 µM |
| COc1ccc2c(c1)CCCN2c1c2ccccc2nc2ccccc12 | 0.356 µM | 5.48 µM | 0.334 µM | 14.3 µM | 0.418 µM | > 100 µM | 0.2 µM | 0.821 µM | 0.811 µM | 34.7 µM | 0.35 µM | 1.66 µM | 0.38 µM | 3.54 µM | – | – |
| C[C@@H]1OC(=O)N2CCCC(=C3SCCCS3)C12 (stereo not given in full) | – | > 100 µM | – | > 100 µM | – | > 100 µM | – | > 100 µM | – | > 100 µM | – | – | – | > 100 µM | – | > 100 µM |
| CN(C)CCNC(=O)c1cccc2ccc(-c3ccncc3)nc12 | – | 5.31 µM | – | 4.71 µM | – | – | – | 9.9 µM | – | 8.37 µM | – | 3.54 µM | – | 3.73 µM | – | 16.1 µM |

| SMILES | GI50 (NCI-H23 lung) | TGI (NCI-H23 lung) | GI50 (HCT-116 colon) | TGI (HCT-116 colon) | GI50 (A549 NSCLC) | TGI (A549 NSCLC) | GI50 (SNB-75 CNS) | TGI (SNB-75 CNS) | GI50 (IGROV1 ovarian) | TGI (IGROV1 ovarian) | GI50 (SK-MEL-5 melanoma) | TGI (SK-MEL-5 melanoma) | GI50 (UACC-62 melanoma) | TGI (UACC-62 melanoma) | GI50 (M14 melanoma) | TGI (M14 melanoma) |
| --- | --- | --- | --- | --- | --- | --- | --- | --- | --- | --- | --- | --- | --- | --- | --- | --- |
| COC1(OC)CC2OC1C1N=NN(C(=O)OC(C)(C)C)C21 (stereo not given) | – | > 100 µM | – | – | – | > 100 µM | – | > 100 µM | – | > 100 µM | – | > 100 µM | – | > 100 µM | – | > 100 µM |
| CCCCCCCC(=O)OCC/C=C/C1OC1C1OC(=O)/C=C\C=C\c2nc(oc2C)/C=C(/C)CCC2OC2C1OC(=O)NC(C)=O (stereo not given) | 0.023 µM | 0.108 µM | 0.00922 µM | 0.368 µM | 0.026 µM | 2.64 µM | 0.0277 µM | 0.0765 µM | 0.0262 µM | 0.918 µM | 0.0248 µM | 0.0688 µM | 0.0316 µM | 0.0808 µM | – | – |
| O=C(O)C(CS)Nc1c2ccccc2nc2ccccc12 (stereo not given) | – | > 100 µM | – | – | – | > 100 µM | – | > 100 µM | – | > 100 µM | – | – | – | – | – | > 100 µM |
| CC(C)(C)c1cc(CCC(=O)Nc2ccc(Cl)cc2)nc(NC#N)n1 | – | > 100 µM | – | > 100 µM | – | > 100 µM | – | – | – | > 100 µM | – | – | – | > 100 µM | – | > 100 µM |
| Cc1ccc(-c2nc3nc(-c4ccccc4)nc(N4CCCNCC4)c3o2)cc1 | 1.89 µM | 3.8 µM | 1.31 µM | 2.65 µM | 1.65 µM | 3.06 µM | 1.36 µM | 2.68 µM | 1.74 µM | 3.39 µM | – | – | 1.68 µM | 3.14 µM | 1.96 µM | 3.69 µM |
| CCOC(=O)/C(=C\c1ccccc1)C(=O)O | – | > 100 µM | – | > 100 µM | – | > 100 µM | – | – | – | > 100 µM | – | > 100 µM | – | > 100 µM | – | > 100 µM |
| O=C(N/C(=C\c1cccc([N+](=O)[O-])c1)c1nc2ccc([N+](=O)[O-])cc2[nH]1)c1ccccc1 | – | > 100 µM | – | – | – | > 100 µM | – | – | – | 74.4 µM | – | 43.7 µM | – | 46.7 µM | – | > 100 µM |
| O=C1CCC(N2C(=O)c3ccccc3C2=O)C(=O)N1CO (stereo not given) | 39.6 µM | 94.6 µM | 21.2 µM | 45.4 µM | > 100 µM | > 100 µM | > 100 µM | > 100 µM | 52.5 µM | > 100 µM | – | – | 32.6 µM | > 100 µM | 54.7 µM | > 100 µM |
| O=C(O)CCSC(=O)Nc1ccc([N+](=O)[O-])cc1 | – | > 100 µM | – | > 100 µM | – | > 100 µM | – | 64.7 µM | – | > 100 µM | – | – | – | – | – | > 100 µM |
| O=C(CC1(O)C(=O)Nc2c(Cl)ccc(Cl)c21)c1ccc(F)cc1 (stereo not given) | – | 60.6 µM | – | – | – | > 100 µM | – | 74.7 µM | – | – | – | 38.6 µM | – | – | – | > 100 µM |
| CCOCC(=O)N[C@H]1CCc2cc(OC)c(OC)c(OC)c2-c2ccc(OC)c(=O)cc21 | – | 0.178 µM | – | 10.7 µM | – | > 100 µM | – | – | – | > 100 µM | – | 0.36 µM | – | > 100 µM | – | 20.2 µM |
| COc1cc(C(=O)CBr)c(OC)cc1C | – | > 100 µM | – | > 100 µM | – | > 100 µM | – | – | – | > 100 µM | – | > 100 µM | – | > 100 µM | – | > 100 µM |
| C=C(C[C@](O)(C(=O)/C=C/c1ccc(Cl)cc1)C(=O)OC)c1ccccc1 | 2.82 µM | 11.9 µM | 1.92 µM | 3.96 µM | 6.63 µM | 21.8 µM | 8.43 µM | 21.8 µM | – | – | 4.11 µM | 14.6 µM | 2.03 µM | 4.58 µM | 2.98 µM | 11.3 µM |
| O=C(Nc1ccncc1)C(=O)c1cn(S(=O)(=O)c2cccc(F)c2)c2ccccc12 | 2.43 µM | > 100 µM | 1.38 µM | > 100 µM | 13.2 µM | > 100 µM | 2.62 µM | 17.8 µM | 8.33 µM | > 100 µM | 2.83 µM | 37.7 µM | 2.96 µM | > 100 µM | – | – |
| CCc1ccccc1NC(=O)C1=C(C)NC(C)=C(C(=O)Nc2ccccc2CC)C1c1ccc2c(c1)OCO2 | – | > 100 µM | – | – | – | > 100 µM | – | 89.3 µM | – | > 100 µM | – | > 100 µM | – | – | – | > 100 µM |
| Nc1c(-c2ccc(Cl)cc2)[n+]([O-])c2ccccc2[n+]1[O-] | – | > 100 µM | – | – | – | > 100 µM | – | > 100 µM | – | > 100 µM | – | > 100 µM | – | > 100 µM | – | > 100 µM |
